This is an account of results in patent publication US20130345268A1, “Methods and Compositions for the Treatment of RAS Associated Disorders” (The Trustees of Dartmouth College, priority 2009, published 2013).

In assay [1] the test system is U-87 MG GBM (glioblastoma) cells. The assay is described as follows: Growth of glioblastoma cells in vitro, Alamar Blue. The class given is cell-based. The following applies: Homo sapiens, 72 h, U87-MG cells, three days, normalized to DMSO-treated wells, three independent experiments. As for the experimental part:
FIG. 4 depicts the effects of two compounds active in NF1−/− MPNST cells on the growth of U-87 MG GBM (glioblastoma) cells in vitro. FIG. 4a depicts the effects of the compound of Formula I(a); FIG. 4b depicts the effects of the compound of Formula IV(c). U87-MG cells were seeded in 96 well plates at a density of 1000 per well in DMEM containing 10% fetal bovine serum. The next day, medium was removed and fresh medium containing 0.1% DMSO or compound was added back. Plates were incubated for three days at 37° C., 5% CO2. Cell growth was assessed with Alamar Blue with values normalized to the DMSO-treated wells. Values are mean of three wells. The AC50 for the compound of Formula Ia was 3.77 micromolar +/−0.7. The AC50 for the compound of Formula IV(c) was 0.97 micromolar +/−0.1. AC50 was calculated using data from three independent experiments.

In assay [2] the test system is STS26T (26T, NF1 wild type MPNST/sarcoma cells). The assay can be described thus: In vitro growth of NF1 wild type MPNST cells, alamar blue, dose-response. The class given is cell-based, human. The following applies: for pIC50: Homo sapiens, STS-26T. As for the experimental part: (§1) The NF1−/− MPNST line T265 used for the screen provides two additional readouts for the chemical approaches to suppress the phenotypes of NFI loss: activated Ras (Mahller et al., 2005) and activated MAPK (FIG. 1). In vitro growth assays of the two cell lines (NF1 positive and NF1 negative) are scaled down to 384 well plates. An Evotec Technologies plate::explorer uHTS system is used. MPNST cell lines T265 and STS26T in logarithmic growth phase are plated in separate 384 well plates at a density of 500 cells per well in Dulbecco's modified Eagle's medium (DMEM; Fisher Scientific; Pittsburgh, Pa.) supplemented with 10% Fetal Bovine Serum (Harlan; Indianapolis, Ind.) containing vehicle (DMSP, “Dimethyl Sulfoxide”) only or one of 13,031 candidate compounds at a concentration of 10 micromolar, a concentration of drug shown not to cause cell death of many human cell lines. The candidate compounds are selected to represent a cross section of compounds covering the diversity space resident in the available library, restricted to drug-like compounds, but evenly and consistently representative across this realm and representative of commercially available compounds. Compounds targeting GPCRs, kinases and other targets of known medical interest are also included. The cells are incubated with the compounds or 5 μg/ml doxorubicin as a positive control for 2 days. Growth is monitored by using the alamar blue method (Alley et al. 1988; Ahmed et al. 1994.) Metabolic activity of cells results in reduction of alamar blue and a large increase in alamar blue fluorescence, which correlates with cell number. Candidate compounds causing interference with fluorescence are eliminated. […] Appropriate control samples and statistical analyses are used.
(§2) Confirmed hits that decreased viability of both cell lines were identified as possible therapeutic agents. A smaller population of hits selectively affected the non-NF1 cell line. These seven confirmed “hits,” or potential therapeutic agents, were tested using the same assay method at 10 concentrations, in triplicate, to give a dose-response and to determine the AC50 (the concentration at which 50% of the maximum activity or inhibition is achieved) for each compound. Using the initial screen, seven compounds are identified showing a significant differential growth inhibition of the mutant NF1 cells relative to wild type NF1 cells.
(Resazurin is reduced to fluorescent resorufin, in cell work by metabolically active cells.)

Assay [3] has as its system T265 (NF1 mutant MPNST/sarcoma cells). The assay is described as follows: In vitro growth of NF1 mutant MPNST cells, alamar blue, dose-response. The class given is cell-based. The following applies: Homo sapiens. As for the experimental part: as §1, §2
In assay [4] the test system is cells lacking Ira2 and Erg6. The assay can be described thus: Growth of strains lacking Ira2 and Erg6, optical density at 595 nm. In kind it is cell-based. The following applies: Synthetic Complete media, 32C, 24 h, OD 595 nm. As for the experimental part: FIG. 3. […] Strains were grown overnight in Synthetic Complete media. 75 μL of culture at a starting optical density of 0.1 were added to a 96 well plate containing 75 μL of Synthetic Complete media with twice the desired final concentration of compound in 1% DMSO. Plates were incubated in a humidified 32C chamber, and scanned on an optical density plate reader at 595 nm after 24 h. The bars represent the mean of three wells, and the error bars represent ±2× standard error.

[5] abbreviates: 48 h, Table 3, STS26T cells, alamar blue, 2 days, 10 concentrations in triplicate, read-out: 26T IC50.
[6] abbreviates: Table 4, NF1 wild type (26T) sarcoma cells, read-out: IC50, 26T.
Setting [7] is: 48 h, Table 3, T265 cells, alamar blue, 2 days, 10 concentrations in triplicate, read-out: T265 IC50.
The mark [8] stands for this setting: Table 4, NF1 mutant sarcoma cells (T265), read-out: IC50, T265.

pIC50: −log10 of the molar value. Where two headings read alike, the source gives them in different places.

For the compound `Cc1ccc(NC(=O)C2=C(c3ccccc3)S(=O)(=O)CCS2(=O)=O)cc1` [Formula IV(c)], in assay [1], the concentration at half-maximal activity (AC50) came to 970 nM.
Turning to `N=C(N)SCc1cn(-c2ccccc2)nc1-c1cccc(Br)c1` [Formula Ia], in assay [1], the AC50 stood at 3770 nM. In addition, the negative logarithm of the IC50 (pIC50) in assay [2] (setting [5]) is 4.30; in assay [2] (setting [6]), 4.30; in assay [3] (setting [7]) it was 5.89; in assay [3] (setting [8]), 5.89. Further, the Inhibition of growth entry in assay [4] was “Inhibition of growth”.
In the case of `CCCCc1ccc2nc(-c3ccccc3)cc(C(=O)NC(C(=O)NC(C)CCCN(CC)CC)C(C)C)c2c1` (centres unmarked) [III], in assay [2] (Table 3, STS26T cells, alamar blue, 2 days, 10 concentrations in triplicate), the “26T IC50” value is “No Effect”. In addition, the negative-log IC50 (pIC50) in assay [3] (setting [7]) is 5.52.
For the compound `Cc1ccc(Cn2c(=N)n(CC(O)c3ccc(Br)cc3)c3ccccc32)cc1` (centres unmarked) [VIII], the pIC50 in assay [2] (setting [5]) is 4.71; in assay [2] (setting [6]) it was 4.71; in assay [3] (setting [7]), 5.96; in assay [3] (setting [8]), 5.96.
Regarding `Cc1ccc(Cn2c(=N)n(CC(=O)c3ccc(Br)cc3)c3ccccc32)cc1` [VII], the figures for the negative-log IC50 (pIC50) in assay [2] (setting [5]) and in assay [3] (setting [7]) were 7.25 and 7.11, respectively.
As for `CCc1cc(-c2ccccc2OS(=O)(=O)c2ccc3ccccc3c2)nn1CCNCCOc1ccccc1` [VI], the figures for the pIC50 in assay [2] (setting [5]) and in assay [3] (setting [7]) were 5.72 and 5.35, respectively.
As to `CCc1cc(-c2ccccc2OS(=O)(=O)c2ccc3ccccc3c2)nn1CCNCCc1ccc(OC)c(OC)c1` [V], the pIC50 in assay [2] (setting [5]) was 4.64; in assay [2] (setting [6]), 4.64; in assay [3] (setting [7]), 5.55; in assay [3] (setting [8]), 5.54.
In the case of `CCN(CC)C(=S)SCC(=O)n1c(C)cc(-c2ccccc2F)c1C` [XI], the negative-log IC50 (pIC50) in assay [2] (setting [5]) is 6.00; in assay [3] (setting [7]) it was 5.77.

A word on the AC50: it is the concentration giving half of the maximal activity seen. Higher therefore signals weaker potency. Usually pIC50 stands for −log10 of the IC50, conventionally taken in molar units.
